Assay results reported in patent US11254651B2, “Histone methyltransferase inhibitors” (GLOBAL BLOOD THERAPEUTICS, INC., priority 2016, dated 2022).

Tested on: HGS tumor model
Test: anti-tumor activity in HGS tumor model
Assay type: in vivo
Details: animals treated with 20/kg of compound
From the text: […]

SMILES: C=CC(=O)N1CCN(CCCn2c(=O)c(-c3c(Cl)c(OC)cc(OC)c3Cl)cc3cnc(NC)nc32)CC1 [8-(3-(4-acryloylpiperazin-1-yl)propyl)-6-(2,6-dichloro-3,5-dimethoxyphenyl)-2-(methylamino)pyrido[2,3-d]pyrimidin-7(8H)-one]
- antitumor activity: significant antitumor activity and induced tumor regression
- tumor size (day 42 after inoculation): 55 mm3
